Test: xn = mol fraction of the nth substance listed
Settings: Liquid, Vibrating tube method

c1ccsc1 [thiophene] + O=C=O
Settings	mass density [kg/m3]
322.95 K, 19000 kPa, x2 = 0.199	1032.53
322.96 K, 8142 kPa, x2 = 0.5661	964.89
322.96 K, 9024 kPa, x2 = 0.5661	967.04
322.96 K, 10004 kPa, x2 = 0.5661	969.41
322.96 K, 11043 kPa, x2 = 0.5661	971.85
322.96 K, 12049 kPa, x2 = 0.5661	974.11
322.96 K, 13009 kPa, x2 = 0.5661	976.27
322.96 K, 14014 kPa, x2 = 0.5661	978.41
322.96 K, 15031 kPa, x2 = 0.5661	980.61
322.96 K, 16040 kPa, x2 = 0.5661	982.75
322.96 K, 17014 kPa, x2 = 0.5661	984.76
322.96 K, 18012 kPa, x2 = 0.5661	986.77
322.96 K, 19036 kPa, x2 = 0.5661	988.76
323.01 K, 1047 kPa, x2 = 0	1028.97
323.01 K, 2059 kPa, x2 = 0	1029.98
323.01 K, 3070 kPa, x2 = 0	1031.02
323.01 K, 4047 kPa, x2 = 0	1031.99
323.01 K, 5002 kPa, x2 = 0	1032.9
323.01 K, 6005 kPa, x2 = 0	1033.9
323.01 K, 7068 kPa, x2 = 0	1034.92
323.01 K, 8021 kPa, x2 = 0	1035.81
323.01 K, 9013 kPa, x2 = 0	1036.76
323.01 K, 10005 kPa, x2 = 0	1037.67
323.01 K, 10991 kPa, x2 = 0	1038.62
323.01 K, 12034 kPa, x2 = 0	1039.58
323.01 K, 12977 kPa, x2 = 0	1040.44
323.01 K, 13999 kPa, x2 = 0	1041.38
323.01 K, 14991 kPa, x2 = 0	1042.26
323.01 K, 15995 kPa, x2 = 0	1043.17
323.01 K, 16998 kPa, x2 = 0	1044.03
323.01 K, 17983 kPa, x2 = 0	1044.93
323.01 K, 18951 kPa, x2 = 0	1045.78
323.06 K, 10088 kPa, x2 = 0.9217	726.5
323.06 K, 11019 kPa, x2 = 0.9217	748.28
323.06 K, 12026 kPa, x2 = 0.9217	766.89
323.06 K, 13007 kPa, x2 = 0.9217	781.83
323.06 K, 14004 kPa, x2 = 0.9217	794.96
323.06 K, 15030 kPa, x2 = 0.9217	806.9
323.06 K, 16054 kPa, x2 = 0.9217	817.45
323.06 K, 17033 kPa, x2 = 0.9217	826.57
323.06 K, 18006 kPa, x2 = 0.9217	835.18
323.06 K, 19038 kPa, x2 = 0.9217	843.46
323.06 K, 20051 kPa, x2 = 0.9217	850.95
323.06 K, 21005 kPa, x2 = 0.9217	857.68
323.06 K, 22019 kPa, x2 = 0.9217	864.36
323.06 K, 23033 kPa, x2 = 0.9217	870.67
323.06 K, 24027 kPa, x2 = 0.9217	876.59
323.06 K, 24980 kPa, x2 = 0.9217	882.14
323.08 K, 6997 kPa, x2 = 0.3818	994.07
323.08 K, 8053 kPa, x2 = 0.3818	995.85
323.08 K, 9009 kPa, x2 = 0.3818	997.45
323.08 K, 10081 kPa, x2 = 0.3818	999.25
323.08 K, 11041 kPa, x2 = 0.3818	1000.81
323.08 K, 12024 kPa, x2 = 0.3818	1002.4
323.08 K, 12998 kPa, x2 = 0.3818	1003.93
323.08 K, 14011 kPa, x2 = 0.3818	1005.51
323.08 K, 15018 kPa, x2 = 0.3818	1007.08
323.08 K, 15936 kPa, x2 = 0.3818	1008.44
323.08 K, 17059 kPa, x2 = 0.3818	1010.13
323.08 K, 17995 kPa, x2 = 0.3818	1011.52
323.08 K, 19010 kPa, x2 = 0.3818	1013.01
323.09 K, 8069 kPa, x2 = 0.6996	950.76
323.09 K, 9063 kPa, x2 = 0.6996	953.71
323.09 K, 10074 kPa, x2 = 0.6996	956.72
323.09 K, 11045 kPa, x2 = 0.6996	959.45
323.09 K, 11999 kPa, x2 = 0.6996	962.01
323.09 K, 13038 kPa, x2 = 0.6996	964.85
323.09 K, 14005 kPa, x2 = 0.6996	967.35
323.09 K, 14998 kPa, x2 = 0.6996	969.82
323.09 K, 16004 kPa, x2 = 0.6996	972.38
323.09 K, 17044 kPa, x2 = 0.6996	974.92
323.09 K, 17927 kPa, x2 = 0.6996	976.97
323.15 K, 101 kPa, x2 = 0	1026.98
332.79 K, 7987 kPa, x2 = 0.5661	943.05
332.79 K, 9035 kPa, x2 = 0.5661	945.99
332.79 K, 10035 kPa, x2 = 0.5661	948.77
332.79 K, 11015 kPa, x2 = 0.5661	951.37
332.79 K, 12021 kPa, x2 = 0.5661	953.97
332.79 K, 13022 kPa, x2 = 0.5661	956.49
332.79 K, 14010 kPa, x2 = 0.5661	958.85
332.79 K, 15020 kPa, x2 = 0.5661	961.27
332.79 K, 16037 kPa, x2 = 0.5661	963.66
332.79 K, 17014 kPa, x2 = 0.5661	965.85
332.79 K, 18001 kPa, x2 = 0.5661	968.08
332.79 K, 19018 kPa, x2 = 0.5661	970.3
332.85 K, 1015 kPa, x2 = 0	1016.93
332.85 K, 2035 kPa, x2 = 0	1018
332.85 K, 3004 kPa, x2 = 0	1019.06
332.85 K, 3964 kPa, x2 = 0	1020.05
332.85 K, 4991 kPa, x2 = 0	1021.14
332.85 K, 5081 kPa, x2 = 0.199	1002.75
332.85 K, 6001 kPa, x2 = 0	1022.17
332.85 K, 6051 kPa, x2 = 0.199	1004.04
332.85 K, 7014 kPa, x2 = 0	1023.21
332.85 K, 7075 kPa, x2 = 0.199	1005.38
332.85 K, 7998 kPa, x2 = 0	1024.2
332.85 K, 8033 kPa, x2 = 0.199	1006.63
332.85 K, 9006 kPa, x2 = 0.199	1007.88
332.85 K, 9009 kPa, x2 = 0	1025.23
332.85 K, 9995 kPa, x2 = 0	1026.19
332.85 K, 10006 kPa, x2 = 0.199	1009.13
332.85 K, 10989 kPa, x2 = 0	1027.18
332.85 K, 11013 kPa, x2 = 0.199	1010.42
332.85 K, 12006 kPa, x2 = 0	1028.17
332.85 K, 12053 kPa, x2 = 0.199	1011.71
332.85 K, 13009 kPa, x2 = 0	1029.18

— the NIST ThermoML archive (doi:10.1016/j.fluid.2005.07.017)
